Values joined by “and” are separate entries in the source; they are usually repeats but may differ in a detail not shown here. Equal values may be shown once.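 The compound was tested at five concentrations on cells cultured in 96-well plates, with a 48-hour exposure period. GI50 is the concentration that inhibits growth by half. At the TGI there is no net growth.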
What was measured:
Experiment in all cases: NCI tumour cell line growth inhibition, 48 h
786-0 renal = system: 786-0 renal
A498 renal = system: A498 renal
A549 NSCLC = system: A549 NSCLC
ACHN renal = system: ACHN renal
BT-549 breast = system: BT-549 breast
CAKI-1 renal = system: CAKI-1 renal
CCRF-CEM leukemia = system: CCRF-CEM leukemia
COLO 205 colon = system: COLO 205 colon
DLD-1 colon = system: DLD-1 colon
DMS 114 small cell lung = system: DMS 114 small cell lung
DMS 273 small cell lung = system: DMS 273 small cell lung
DU-145 prostate = system: DU-145 prostate
EKVX NSCLC = system: EKVX NSCLC
HCC-2998 colon = system: HCC-2998 colon
HCT-116 colon = system: HCT-116 colon
HCT-15 colon = system: HCT-15 colon
HL-60(TB) leukemia = system: HL-60(TB) leukemia
HOP-18 NSCLC = system: HOP-18 NSCLC
HOP-62 NSCLC = system: HOP-62 NSCLC
HOP-92 NSCLC = system: HOP-92 NSCLC
HT29 colon = system: HT29 colon
IGROV1 ovarian = system: IGROV1 ovarian
K-562 leukemia = system: K-562 leukemia
KM12 colon = system: KM12 colon
KM20L2 colon = system: KM20L2 colon
LOX IMVI melanoma = system: LOX IMVI melanoma
M14 melanoma = system: M14 melanoma
M19-MEL melanoma = system: M19-MEL melanoma
MALME-3M melanoma = system: MALME-3M melanoma
MCF7 breast = system: MCF7 breast
MDA-MB-231 breast = system: MDA-MB-231 breast
MDA-MB-435 = system: MDA-MB-435
MDA-N = system: MDA-N
MOLT-4 leukemia = system: MOLT-4 leukemia
NCI-H226 lung = system: NCI-H226 lung
NCI-H23 lung = system: NCI-H23 lung
NCI-H460 lung = system: NCI-H460 lung
NCI-H522 lung = system: NCI-H522 lung
NCI/ADR-RES ovarian = system: NCI/ADR-RES ovarian
OVCAR-4 ovarian = system: OVCAR-4 ovarian
OVCAR-5 ovarian = system: OVCAR-5 ovarian
P388 leukemia = system: P388 leukemia
P388/ADR leukemia = system: P388/ADR leukemia
PC-3 prostate = system: PC-3 prostate
RPMI-8226 leukemia = system: RPMI-8226 leukemia
RXF 393 renal = system: RXF 393 renal
SF-268 CNS = system: SF-268 CNS
SF-295 CNS = system: SF-295 CNS
SF-539 CNS = system: SF-539 CNS
SK-MEL-2 melanoma = system: SK-MEL-2 melanoma
SK-MEL-28 melanoma = system: SK-MEL-28 melanoma
SK-MEL-5 melanoma = system: SK-MEL-5 melanoma
SK-OV-3 ovarian = system: SK-OV-3 ovarian
SN12C renal = system: SN12C renal
SN12K1 renal = system: SN12K1 renal
SNB-19 CNS = system: SNB-19 CNS
SNB-75 CNS = system: SNB-75 CNS
SNB-78 CNS = system: SNB-78 CNS
SR leukemia = system: SR leukemia
SW-620 colon = system: SW-620 colon
T-47D breast = system: T-47D breast
TK-10 renal = system: TK-10 renal
U251 CNS = system: U251 CNS
UACC-257 melanoma = system: UACC-257 melanoma
UACC-62 melanoma = system: UACC-62 melanoma
UO-31 renal = system: UO-31 renal
XF 498 CNS = system: XF 498 CNS

CCCCCCCCCCS(=O)CC(CO)NC(=O)/C=C/c1c(C)[nH]c(=O)[nH]c1=O (stereo not given)
TGI (786-0 renal): 27 µM
GI50 (A498 renal): 23.4 µM
TGI (A498 renal): 7.98 µM and 62.1 µM
GI50 (A549 NSCLC): 14.2 µM
TGI (A549 NSCLC): 35.3 µM and 31.8 µM
TGI (ACHN renal): 28.5 µM
TGI (BT-549 breast): 25.1 µM
TGI (CAKI-1 renal): 4.2 µM and 31.1 µM
GI50 (CCRF-CEM leukemia): 4.08 µM
TGI (CCRF-CEM leukemia): 2.41 µM and 13.2 µM
GI50 (COLO 205 colon): 2.96 µM
TGI (DLD-1 colon): 5.28 µM
TGI (DMS 114 small cell lung): 1.42 µM
TGI (DMS 273 small cell lung): 4.04 µM
TGI (DU-145 prostate): > 100 µM
GI50 (EKVX NSCLC): 28.3 µM
GI50 (HCC-2998 colon): 3.26 µM
TGI (HCC-2998 colon): 1.9 µM and 17.5 µM
TGI (HCT-116 colon): 5.61 µM and 31.9 µM
GI50 (HCT-15 colon): 4.4 µM
TGI (HCT-15 colon): 14.8 µM and 21.5 µM
TGI (HL-60(TB) leukemia): 4.16 µM
TGI (HOP-18 NSCLC): 16.2 µM
GI50 (HOP-62 NSCLC): 4.8 µM
TGI (HOP-62 NSCLC): 6.49 µM and 18.4 µM
GI50 (HOP-92 NSCLC): 10.5 µM
GI50 (HT29 colon): 6.27 µM
TGI (HT29 colon): 22.7 µM and 19.9 µM
GI50 (IGROV1 ovarian): 2.77 µM
TGI (IGROV1 ovarian): 13.5 µM and 8.81 µM
GI50 (K-562 leukemia): 26.4 µM
TGI (KM12 colon): 3.27 µM
TGI (KM20L2 colon): 6 µM
GI50 (LOX IMVI melanoma): 13.5 µM
TGI (LOX IMVI melanoma): 10.2 µM and 27.1 µM
TGI (M14 melanoma): 24.4 µM
TGI (M19-MEL melanoma): 4.3 µM
GI50 (MALME-3M melanoma): 23.9 µM
GI50 (MCF7 breast): 23.4 µM
TGI (MDA-MB-231 breast): 15.9 µM
TGI (MDA-MB-435): 49.1 µM
TGI (MDA-N): 57.5 µM
GI50 (MOLT-4 leukemia): 8.74 µM
TGI (MOLT-4 leukemia): 4.68 µM and 45.5 µM
TGI (NCI-H226 lung): 4.21 µM
GI50 (NCI-H23 lung): 29.5 µM
TGI (NCI-H460 lung): 1.97 µM and 15.3 µM
GI50 (NCI-H522 lung): 10.6 µM
GI50 (NCI/ADR-RES ovarian): 17.2 µM
TGI (NCI/ADR-RES ovarian): 37.9 µM and 34.2 µM
TGI (OVCAR-4 ovarian): 1.88 µM
GI50 (OVCAR-5 ovarian): 2.86 µM
TGI (OVCAR-5 ovarian): 11.6 µM and 10.2 µM
TGI (P388 leukemia): 1.62 µM
TGI (P388/ADR leukemia): 24.5 µM
TGI (PC-3 prostate): 7.79 µM
GI50 (RPMI-8226 leukemia): 10.6 µM
GI50 (RXF 393 renal): 10 µM
TGI (SF-268 CNS): 2.01 µM
GI50 (SF-295 CNS): 1.15 µM and 7.04 µM
TGI (SF-295 CNS): 8.88 µM and 22.8 µM
GI50 (SF-539 CNS): 14.9 µM
GI50 (SK-MEL-2 melanoma): 25.8 µM
GI50 (SK-MEL-28 melanoma): 43.9 µM
GI50 (SK-MEL-5 melanoma): 18.2 µM
TGI (SK-MEL-5 melanoma): 4.52 µM and 40.4 µM
GI50 (SK-OV-3 ovarian): 11 µM
TGI (SK-OV-3 ovarian): 12.7 µM and 32.1 µM
GI50 (SN12C renal): 10.3 µM
TGI (SN12K1 renal): 3.9 µM
TGI (SNB-19 CNS): 2.64 µM and 25.7 µM
TGI (SNB-75 CNS): 1.76 µM
TGI (SNB-78 CNS): 5.65 µM
TGI (SR leukemia): > 100 µM
GI50 (SW-620 colon): 15.7 µM
TGI (T-47D breast): 39.6 µM
TGI (TK-10 renal): 4.02 µM
GI50 (U251 CNS): 17.4 µM
GI50 (UACC-257 melanoma): 20.4 µM
TGI (UACC-257 melanoma): 9.58 µM and 43.7 µM
GI50 (UACC-62 melanoma): 9.8 µM
TGI (UACC-62 melanoma): 4.08 µM and 24.5 µM
GI50 (UO-31 renal): 17.2 µM
TGI (UO-31 renal): 8.68 µM and 33.8 µM
TGI (XF 498 CNS): 0.229 µM

From PubChem BioAssay (NCI)
